How the values were obtained:
[1] = target: human dopamine receptor type 2, long variant (hD2L) (Homo sapiens (Human), UniProt P14416); assay: [3H]-Spiperone binding assay at hD2 recombinant receptor (CHO-Gα16-hD2L membranes)
Protocol: [^3H]-Spiperone Binding Assay at hD2 Recombinant Receptor CHO cells stably expressing human dopamine receptor type 2, long variant (hD2L), coupled to Gα16 protein (CHO-Gα16-hD2L) were re-suspended in 20 mM HEPES, 2 mM EDTA (pH 7.4), homogenised and centrifuged at 40,000 g (20 min, 4° C.). After re-suspension, homogenization and centrifugation as above, the final pellet was re-suspended in 20 mM HEPES, 100 mM NaCl, 10 mM MgCl2, 1 mM EDTA (pH 7.4) and aliquots were kept at −80° C. [^3H]-Spiperone Binding experiments were performed in 96 deep-well polypropylene plates in 50 mM Tris/HCl, 120 mM NaCl, 5 mM KCl, 5 mM MgCl2 (pH 7.4). […] Displacement was performed in the presence of 0.08 nM [^3H]-Spiperone. The reaction was initiated by the addition of membrane suspension (2 μg of protein for CHO-hD2 membranes) and lasted for 120 min at 23° C. in a final volume of 1000 μl. Non specific binding (NSB) was determined in the presence of 0.1 μM Spiperone. The binding reaction was stopped by rapid filtration through GF/B filterplates pre-soaked in 0.5% polyetylenimmine (PEI) using a Packard cell harvester. After washing with ice-cold 0.9% NaCl, the plate was left to dry before the addition of Microscint 20 (50 μl/well, PerkinElmer). Radioactivity was counted with a TopCount (PerkinElmer). […] Saturation binding experiments were performed similar to the competition binding experiments using a radioligand concentrations ranging from 0.011 to 3.0 nM. […] Is Clozapine selective for the dopamine D4 receptor? […] Real-time analysis of dopamine: antagonist interactions at recombinant human D2long receptor upon modulation of its activation state. Brit. J.

[2] = target: human dopamine type 3 receptor (hD3) (Homo sapiens (Human), UniProt P35462); assay: [3H]-Spiperone binding assay at hD3 recombinant receptor (CHO-hD3 membranes); settings: pKi only estimated to be accurate to about ±0.3-0.5
Protocol: [^3H]-Spiperone Binding Assay at hD3 and hD4 recombinant receptors CHO cells transiently transfected with human dopamine type 3 or 4 receptors (CHO-hD3 or CHO-hD4, respectively), were re-suspended in 20 mM HEPES, 2 mM EDTA (pH 7.4), homogenised and centrifuged at 40,000 g (20 min, 4° C.). After re-suspension, homogenization and centrifugation as above, the final pellet was re-suspended in 20 mM HEPES, 100 mM NaCl, 10 mM MgCl2, 1 mM EDTA (pH 7.4) and aliquots were kept at −80° C. [^3H]-Spiperone Binding experiments were performed in 96 deep-well polypropylene plates in 50 mM Tris/HCl, 120 mM NaCl, 5 mM KCl, 5 mM MgCl2 (pH 7.4). Compounds of invention were serially diluted in DMSO at 100 fold final concentrations in the assay (1% DMSO final in the assay). Displacement was performed in the presence of 0.3 nM [^3H]-Spiperone. The reaction was initiated by the addition of membrane suspension (4 μg and 12 μg of protein for CHO-hD3- and CHO-hD4 membranes, respectively) and lasted for 90 or 100 min (for hD3 or hD4 membranes, respectively) at 23° C. in a final volume of 500 μl. Non specific binding (NSB) was determined in the presence of 1 μM Spiperone. The binding reaction was stopped by rapid filtration through GF/B filterplates pre-soaked in 0.5% polyetylenimmine (PEI) using a Packard cell harvester. After washing with ice-cold 0.9% NaCl, the plate was left to dry before the addition of Microscint 20 ([…], PerkinElmer). Radioactivity was counted with a TopCount (PerkinElmer). Data were analysed by non-linear regression analysis using GraphPad Prism 5.0 (GraphPad Software). Saturation binding experiments were performed similar to the competition binding experiments using a radioligand concentrations ranging from 0.015 to 4.0 nM. […] Characterization of the human dopamine D3 receptor expressed in transfected cell lines.

human dopamine type 3 receptor (hD3), sequence (P35462 whole entry): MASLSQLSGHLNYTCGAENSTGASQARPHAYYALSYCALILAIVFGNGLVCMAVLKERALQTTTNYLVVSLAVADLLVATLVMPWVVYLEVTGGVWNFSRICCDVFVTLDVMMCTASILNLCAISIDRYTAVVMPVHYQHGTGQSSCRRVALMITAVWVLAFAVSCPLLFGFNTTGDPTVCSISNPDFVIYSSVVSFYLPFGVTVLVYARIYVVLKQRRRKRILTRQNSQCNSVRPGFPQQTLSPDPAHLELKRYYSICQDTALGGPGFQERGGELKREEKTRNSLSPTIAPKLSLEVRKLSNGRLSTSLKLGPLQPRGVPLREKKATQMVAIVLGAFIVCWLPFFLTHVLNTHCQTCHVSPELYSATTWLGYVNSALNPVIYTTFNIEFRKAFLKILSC

Row | Compound | D2 p Ki [1] | D3 p Ki [2]
1 | Cn1c(SCCCN2CCOC(c3ccc(C(F)(F)F)cc3)C2)nnc1-c1cccnc1 (centres unmarked) [Example 18, 4-(3-{[4-methyl-5-(pyridin-3-yl)-4H-1,2,4-triazol-3-yl]sulfanyl}propyl)-2-[4-(trifluoromethyl)phenyl]morpholine] | 4.83 | 6.77
2 | Cn1c(SCCCN2CCOC(c3ccc(C(F)(F)F)cc3)C2)nnc1-c1cnccn1 (centres unmarked) [Example 19, 4-(3-{[4-methyl-5-(pyrazin-2-yl)-4H-1,2,4-triazol-3-yl]sulfanyl}propyl)-2-[4-(trifluoromethyl)phenyl]morpholine] |  | 6.76
3 | Cn1c(SCCCN2CCOC(c3ccc(C(F)(F)F)cc3)C2)nnc1-c1ccc(C(N)=O)nc1 (centres unmarked) [Example 20, 5-{4-methyl-5-[(3-{2-[4-(trifluoromethyl)phenyl]morpholin-4-yl}propyl)sulfanyl]-4H-1,2,4-triazol-3-yl}pyridine-2-carboxamide] |  | 7.45
4 | Cn1c(SCCCN2CCOC(c3ccc(C(F)(F)F)cc3)C2)nnc1-c1ccc(C(N)=O)cn1 (centres unmarked) [Example 22, 6-{4-methyl-5-[(3-{2-[4-(trifluoromethyl)phenyl]morpholin-4-yl}propyl)sulfanyl]-4H-1,2,4-triazol-3-yl}pyridine-3-carboxamide] | 4.79 | 7
5 | Cn1c(SCCCN2CCOC(c3ccc(C(F)(F)F)cc3)C2)nnc1-c1cccc(C(N)=O)c1 (centres unmarked) [Example 23, 3-{4-methyl-5-[(3-{2-[4-(trifluoromethyl)phenyl]morpholin-4-yl}propyl)sulfanyl]-4H-1,2,4-triazol-3-yl}benzamide] | 4.82 | 6.53
6 | Cn1cccc1-c1nnc(SCCCN2CCOC(c3ccc(C(F)(F)F)cc3)C2)n1C (centres unmarked) [Example 24] | 5.18 | 6.9
7 | Cn1c(SCCCN2CCOC(c3ccc(C(F)(F)F)cc3)C2)nnc1C1CCCCC1 (centres unmarked) [Example 25, 4-{3-[(5-cyclohexyl-4-methyl-4H-1,2,4-triazol-3-yl)sulfanyl]propyl}-2-[4-(trifluoromethyl)phenyl]morpholine] | 5.05 | 7.36
8 | Cn1c(SCCCN2CCOC(c3ccc(C(F)(F)F)cc3)C2)nnc1-c1nccs1 (centres unmarked) [Example 26, 4-(3-{[4-methyl-5-(1,3-thiazol-2-yl)-4H-1,2,4-triazol-3-yl]sulfanyl}propyl)-2-[4-(trifluoromethyl)phenyl]morpholine] | 5.14 | 6.55
9 | Cn1nccc1-c1nnc(SCCCN2CCOC(c3ccc(C(F)(F)F)cc3)C2)n1C (centres unmarked) [Example 27, 4-(3-{[4-methyl-5-(1-methyl-1H-pyrazol-5-yl)-4H-1,2,4-triazol-3-yl]sulfanyl}propyl)-2-[4-(trifluoromethyl)phenyl]morpholine] | <5 | 6.16
10 | Cn1c(SCCCN2CCOC(c3ccc(C(F)(F)F)cc3)C2)nnc1-c1ccsc1 (centres unmarked) [Example 28] | 5.06 | 6.95
11 | Cn1c(SCCCN2CCOC(c3ccc(C(F)(F)F)cc3F)C2)nnc1-c1ccc(C(N)=O)cc1 (centres unmarked) [Example 35] |  | 7.06
12 | Cc1ccc(C2CN(CCCSc3nnc(-c4ocnc4C)n3C)CCO2)cc1 (centres unmarked) [Example 36, 4-(3-{[4-methyl-5-(4-methyl-1,3-oxazol-5-yl)-4H-1,2,4-triazol-3-yl]sulfanyl}propyl)-2-(4-methylphenyl)morpholine] |  | 6.17
13 | Cc1ncoc1-c1nnc(SCCCN2CCOC(c3ccc(Br)cc3)C2)n1C (centres unmarked) [Example 38, 2-(4-bromophenyl)-4-(3-{[4-methyl-5-(4-methyl-1,3-oxazol-5-yl)-4H-1,2,4-triazol-3-yl]sulfanyl}propyl)morpholine] |  | 6.72

Other lines, results leading:

Row | D2 p Ki [1] | D3 p Ki [2] | Compound
14 | 4.86 | 7.94 | Cn1c(SCCCN2CCOC(c3ccc(C(F)(F)F)cc3)C2)nnc1-c1ccc(C(N)=O)cc1 (single isomer, unassigned) [Example 13, 4-[4-methyl-5-({3-[(2R or 2S)-2-[4-(trifluoromethyl)phenyl]morpholin-4-yl]propyl}sulfanyl)-4H-1,2,4-triazol-3-yl]benzamide]
15 | 4.81 | 6.36 | Cn1c(SCCCN2CCOC(c3ccc(C(F)(F)F)cc3)C2)nnc1-c1ccc(-c2ncco2)cc1 (single isomer, unassigned) [Example 15, (2S or 2R)-4-[3-({4-methyl-5-[4-(1,3-oxazol-2-yl)phenyl]-4H-1,2,4-triazol-3-yl}sulfanyl)propyl]-2-[4-(trifluoromethyl)phenyl]morpholine]
16 | 5.28 | 8.23 | Cn1c(SCCCN2CCOC(c3ccc(C(F)(F)F)cc3)C2)nnc1-c1ccc(-c2ncco2)cc1 (single isomer, unassigned) [Example 16, (2R or 2S)-4-[3-({4-methyl-5-[4-(1,3-oxazol-2-yl)phenyl]-4H-1,2,4-triazol-3-yl}sulfanyl)propyl]-2-[4-(trifluoromethyl)phenyl]morpholine]
17 | 4.96 | 7.46 | Cn1c(SCCCN2CCOC(c3ccc(C(F)(F)F)cc3)C2)nnc1-c1ccc(C(N)=O)cc1 (centres unmarked) [Example 11, 4-{4-methyl-5-[(3-{2-[4-(trifluoromethyl)phenyl]-morpholin-4-yl}propyl)sulfanyl]-4H-1,2,4-triazol-3-yl}benzamide]
18 | 5.83 | 8.31 | Cn1c(SCCCN2CCOC(c3ccc(C(F)(F)F)cc3)C2)nnc1-c1ccc(-c2ncco2)cc1 (centres unmarked) [Example 14, 4-[3-({4-methyl-5-[4-(1,3-oxazol-2-yl)phenyl]-4H-1,2,4-triazol-3-yl}sulfanyl)propyl]-2-[4-(trifluoromethyl)phenyl]morpholine]
19 | 5.04 | 6.9 | Cn1c(SCCCN2CCOC(c3ccc(C(F)(F)F)cc3)C2)nnc1-c1ccc(-n2cnnc2)cc1 (centres unmarked) [Example 21, 4-[3-({4-methyl-5-[4-(4H-1,2,4-triazol-4-yl)phenyl]-4H-1,2,4-triazol-3-yl}sulfanyl)propyl]-2-[4-(trifluoromethyl)phenyl]morpholine]
20 | 4.91 | 7.79 | Cn1c(SCCCN2CCOC(c3ccc(C(F)(F)F)cc3)C2)nnc1-c1ccc(-c2nnco2)cc1 (centres unmarked) [Example 29, 4-[3-({4-methyl-5-[4-(1,3,4-oxadiazol-2-yl)phenyl]-4H-1,2,4-triazol-3-yl}sulfanyl)propyl]-2-[4-(trifluoromethyl)phenyl]morpholine]
21 | <5 | 7.63 | Cc1nc(-c2ccc(-c3nnc(SCCCN4CCOC(c5ccc(C(F)(F)F)cc5)C4)n3C)cc2)no1 (centres unmarked) [Example 30, 4-[3-({4-methyl-5-[4-(5-methyl-1,2,4-oxadiazol-3-yl)phenyl]-4H-1,2,4-triazol-3-yl}sulfanyl)propyl]-2-[4-(trifluoromethyl)phenyl]morpholine]
22 | 4.95 | 6.97 | Cn1c(SCCCN2CCOC(c3ccc(C(F)(F)F)cc3)C2)nnc1-c1ccc(C#N)cc1 (centres unmarked) [Example 31, 4-{4-methyl-5-[(3-{2-[4-(trifluoromethyl)phenyl]morpholin-4-yl}propyl)sulfanyl]-4H-1,2,4-triazol-3-yl}benzonitrile]
23 | 4.65 | 7.18 | CC(=O)c1ccc(-c2nnc(SCCCN3CCOC(c4ccc(C(F)(F)F)cc4)C3)n2C)cc1 (centres unmarked) [Example 32, 1-(4-{4-methyl-5-[(3-{2-[4-(trifluoromethyl)phenyl]morpholine-4-yl}propyl)sulfanyl]-4H-1,2,4-triazol-3-yl}phenyl)ethan-1-one]
